Results as given in patent US20220289715A1, “PESTICIDALLY ACTIVE PYRAZINE-AMIDE COMPOUNDS” (priority 2019, published 2022).

Key:
Format in all cases: in vivo
[1] = system: Plutella xylostella (Diamondback Moth); assay: Example B9: Plutella xylostella, artificial diet, 96-well; conditions: 216 h, application rate of 500 ppm, eggs/L1 larvae, 9 days after infestation
Procedure: Example B9: Plutella xylostella (Diamondback Moth)
96-well microtiter plates containing artificial diet were treated with aqueous test solutions, prepared from 10,000 ppm DMSO stock solutions, by a liquid handling robot. After drying, eggs (˜30 per well) were infested onto a netted lid which was suspended above the diet. The eggs hatch and L1 larvae move down to the diet. The samples were assessed for mortality 9 days after infestation.
The following compounds gave an effect of at least 80% mortality at an application rate of 500 ppm: […]

[2] = system: Chilo suppressalis (Striped Rice Stemborer); assay: Example B3: Chilo suppressalis, artificial diet; conditions: 144 h, application rate of 200 ppm, L2 larvae, 6 days after infestation, read-out: control in at least one of the three categories (mortality, anti-feedant effect, or growth inhibition)
Procedure: Example B3: Chilo suppressalis (Striped Rice Stemborer)
24-well microtiter plates with artificial diet were treated with aqueous test solutions prepared from 10,000 ppm DMSO stock solutions by pipetting. After drying, the plates were infested with L2 larvae (6-8 per well). The samples were assessed for mortality, anti-feeding effect, and growth inhibition in comparison to untreated samples 6 days after infestation. Control of Chilo suppressalis by a test sample is given when at least one of the categories mortality, anti-feedant effect, and growth inhibition is higher than the untreated sample.

[3] = system: Myzus persicae (Green Peach Aphid); assay: Example B10: Myzus persicae, sucrose solution, 96-well; conditions: 120 h, application rate of 50 ppm, 5 days after infestation
Source text: Example B10: Myzus persicae (Green Peach Aphid)
Test compounds prepared from 10,000 ppm DMSO stock solutions were applied by a liquid handling robot into 96-well microtiter plates and mixed with a sucrose solution. Parafilm was stretched over the 96-well microtiter plate and a plastic stencil with 96 holes was placed onto the plate. Aphids were sieved into the wells directly onto the Parafilm. The infested plates were closed with a gel blotting card and a second plastic stencil and then turned upside down. The samples were assessed for mortality 5 days after infestation.

[4] = system: Spodoptera littoralis (Egyptian Cotton Leaf Worm); assay: Example B6: Spodoptera littoralis, spray on cotton leaf discs; conditions: foliar, 72 h, application rate of 200 ppm, L1 larvae, 3 days after infestation, read-out: control in at least one of the three categories (mortality, anti-feedant effect, or growth inhibition)
Procedure: Example B6: Spodoptera littoralis (Egyptian Cotton Leaf Worm)
Cotton leaf discs were placed onto agar in 24-well microtiter plates and sprayed with aqueous test solutions prepared from 10,000 ppm DMSO stock solutions. After drying the leaf discs were infested with five L1 larvae. The samples were assessed for mortality, anti-feeding effect, and growth inhibition in comparison to untreated samples 3 days after infestation. Control of Spodoptera littoralis by a test sample is given when at least one of the categories mortality, anti-feedant effect, and growth inhibition is higher than the untreated sample.

[5] = system: Diabrotica balteata (Corn Root Worm); assay: Example B1: Diabrotica balteata, spray on maize sprouts; conditions: 96 h, application rate of 200 ppm, L2 larvae, 4 days after infestation, read-out: control in at least one of the two categories (mortality or growth inhibition)
Procedure: Example B1: Diabrotica balteata (Corn Root Worm)
Maize sprouts placed onto an agar layer in 24-well microtiter plates were treated with aqueous test solutions prepared from 10,000 ppm DMSO stock solutions by spraying. After drying, the plates were infested with L2 larvae (6 to 10 per well). The samples were assessed for mortality and growth inhibition in comparison to untreated samples 4 days after infestation.
(§1) The following compounds gave an effect of at least 80% control in at least one of the two categories (mortality or growth inhibition) at an application rate of 200 ppm: […]

[6] = system: Plutella xylostella (Diamond Back Moth); assay: Example B4: Plutella xylostella, artificial diet, 24-well; conditions: 192 h, application rate of 200 ppm, eggs, 8 days after infestation, read-out: control in at least one of the two categories (mortality or growth inhibition)
Procedure: Example B4: Plutella xylostella (Diamond Back Moth)
24-well microtiter plates with artificial diet were treated with aqueous test solutions prepared from 10,000 ppm DMSO stock solutions by pipetting. After drying, Plutella eggs were pipetted through a plastic stencil onto a gel blotting paper and the plate was closed with it. The samples were assessed for mortality and growth inhibition in comparison to untreated samples 8 days after infestation.
as §1

[7] = system: Euschistus heros (Neotropical Brown Stink Bug); assay: Example B2: Euschistus heros, spray on soybean leaves; conditions: 120 h, application rate of 200 ppm, N2 nymphs, 5 days after infestation, read-out: control in at least one of the two categories (mortality or growth inhibition)
Procedure: Example B2: Euschistus heros (Neotropical Brown Stink Bug)
Soybean leaves on agar in 24-well microtiter plates were sprayed with aqueous test solutions prepared from 10,000 ppm DMSO stock solutions. After drying the leaves were infested with N2 nymphs. The samples were assessed for mortality and growth inhibition in comparison to untreated samples 5 days after infestation.
as §1

CC(NC(=O)c1cc(F)cc(C(F)(F)F)c1)c1nccnc1-n1nccn1 (centres unmarked) [Compound P26, 3-fluoro-N-[1-[3-(triazol-2-yl)pyrazin-2-yl]ethyl]-5-(trifluoromethyl)benzamide]
≥ 80%: mortality at 500 ppm [1] | percent control (mortality, anti-feedant effect or growth inhibition) at 200 ppm [2] | mortality at 50 ppm [3] | percent control (mortality, anti-feedant effect or growth inhibition) at 200 ppm [4] | percent control (mortality or growth inhibition) at 200 ppm [5] | percent control (mortality or growth inhibition) at 200 ppm [6]

CC(NC(=O)c1cc(C(F)(F)F)nc(C2(C#N)CC2)c1)c1nccnc1-n1nccn1 (centres unmarked) [Compound P14, 2-(1-cyanocyclopropyl)-N-[1-[3-(triazol-2-yl)pyrazin-2-yl]ethyl]-6-(trifluoromethyl)pyridine-4-carboxamide]
≥ 80%: percent control (mortality, anti-feedant effect or growth inhibition) at 200 ppm [2] | percent control (mortality, anti-feedant effect or growth inhibition) at 200 ppm [4] | percent control (mortality or growth inhibition) at 200 ppm [5] | percent control (mortality or growth inhibition) at 200 ppm [7] | percent control (mortality or growth inhibition) at 200 ppm [6]

CC(NC(=O)c1cc(Br)cc(OC(F)(F)F)c1)c1nccnc1-n1nccn1 (centres unmarked) [Compound P36, 3-bromo-N-[1-[3-(triazol-2-yl)pyrazin-2-yl]ethyl]-5-(trifluoromethoxy)benzamide]
≥ 80%: mortality at 500 ppm [1] | percent control (mortality, anti-feedant effect or growth inhibition) at 200 ppm [2] | percent control (mortality, anti-feedant effect or growth inhibition) at 200 ppm [4] | percent control (mortality or growth inhibition) at 200 ppm [5] | percent control (mortality or growth inhibition) at 200 ppm [6]

CC(NC(=O)c1cc(C(F)(F)F)cc(C(F)(F)F)c1)c1nccnc1-n1cncn1 (centres unmarked) [Compound P46, N-[1-[3-(1,2,4-triazol-1-yl)pyrazin-2-yl]ethyl]-3,5-bis(trifluoromethyl)benzamide]
≥ 80%: percent control (mortality, anti-feedant effect or growth inhibition) at 200 ppm [2] | percent control (mortality, anti-feedant effect or growth inhibition) at 200 ppm [4] | percent control (mortality or growth inhibition) at 200 ppm [7] | percent control (mortality or growth inhibition) at 200 ppm [6]

COc1cc(OC)cc(C(=O)NC(C)c2nccnc2-n2nccn2)c1 (centres unmarked) [Compound P23, 3,5-dimethoxy-N-[1-[3-(triazol-2-yl)pyrazin-2-yl]ethyl]benzamide]
≥ 80%: mortality at 50 ppm [3] | percent control (mortality or growth inhibition) at 200 ppm [7]

CC(NC(=O)c1cc(C2CC2)cc(C(F)(F)F)c1)c1nccnc1-n1nccn1 (centres unmarked) [Compound P15, 3-cyclopropyl-N-[1-[3-(triazol-2-yl)pyrazin-2-yl]ethyl]-5-(trifluoromethyl)benzamide]
≥ 80%: mortality at 500 ppm [1] | percent control (mortality, anti-feedant effect or growth inhibition) at 200 ppm [2] | percent control (mortality, anti-feedant effect or growth inhibition) at 200 ppm [4] | percent control (mortality or growth inhibition) at 200 ppm [5] | percent control (mortality or growth inhibition) at 200 ppm [6]

CC(NC(=O)c1cc(Cl)nc(C(F)(F)F)c1)c1nccnc1-n1nccn1 (centres unmarked) [Compound P22, 2-chloro-N-[1-[3-(triazol-2-yl)pyrazin-2-yl]ethyl]-6-(trifluoromethyl)pyridine-4-carboxamide]
≥ 80%: mortality at 500 ppm [1] | percent control (mortality, anti-feedant effect or growth inhibition) at 200 ppm [2] | mortality at 50 ppm [3] | percent control (mortality, anti-feedant effect or growth inhibition) at 200 ppm [4] | percent control (mortality or growth inhibition) at 200 ppm [5] | percent control (mortality or growth inhibition) at 200 ppm [6]

CC(NC(=O)c1cc(Cl)cc(OC(F)(F)F)c1)c1nccnc1-n1nccn1 (centres unmarked) [Compound P33, 3-chloro-N-[1-[3-(triazol-2-yl)pyrazin-2-yl]ethyl]-5-(trifluoromethoxy)benzamide]
≥ 80%: mortality at 500 ppm [1] | percent control (mortality, anti-feedant effect or growth inhibition) at 200 ppm [2] | percent control (mortality, anti-feedant effect or growth inhibition) at 200 ppm [4] | percent control (mortality or growth inhibition) at 200 ppm [5] | percent control (mortality or growth inhibition) at 200 ppm [6]

CC(NC(=O)c1cc(Cl)cc(Cl)c1)c1nccnc1-n1nccn1 (centres unmarked) [Compound P20, 3,5-dichloro-N-[1-[3-(triazol-2-yl)pyrazin-2-yl]ethyl]benzamide]
≥ 80%: percent control (mortality, anti-feedant effect or growth inhibition) at 200 ppm [2] | percent control (mortality, anti-feedant effect or growth inhibition) at 200 ppm [4] | percent control (mortality or growth inhibition) at 200 ppm [5] | percent control (mortality or growth inhibition) at 200 ppm [7] | percent control (mortality or growth inhibition) at 200 ppm [6]

CC(NC(=O)c1cc(C2CC2C(F)(F)F)cc(C(F)(F)F)c1)c1nccnc1-n1nccn1 (centres unmarked) [Compound P9, N-[1-[3-(triazol-2-yl)pyrazin-2-yl]ethyl]-3-(trifluoromethyl)-5-[2-(trifluoromethyl)cyclopropyl]benzamide]
≥ 80%: mortality at 500 ppm [1] | percent control (mortality, anti-feedant effect or growth inhibition) at 200 ppm [2] | percent control (mortality, anti-feedant effect or growth inhibition) at 200 ppm [4] | percent control (mortality or growth inhibition) at 200 ppm [5] | percent control (mortality or growth inhibition) at 200 ppm [6]

CC(NC(=O)c1cc(C2CC2)nc(C(F)(F)F)c1)c1nccnc1-n1nccn1 (centres unmarked) [Compound P11, 2-cyclopropyl-N-[1-[3-(triazol-2-yl)pyrazin-2-yl]ethyl]-6-(trifluoromethyl)pyridine-4-carboxamide]
≥ 80%: mortality at 500 ppm [1] | percent control (mortality, anti-feedant effect or growth inhibition) at 200 ppm [2] | percent control (mortality, anti-feedant effect or growth inhibition) at 200 ppm [4] | percent control (mortality or growth inhibition) at 200 ppm [5] | percent control (mortality or growth inhibition) at 200 ppm [6]

CC(NC(=O)c1cc(C2CC2(F)F)cc(C(F)(F)F)c1)c1nccnc1-n1nccn1 (centres unmarked) [Compound P7, 3-(2,2-difluorocyclopropyl)-N-[1-[3-(triazol-2-yl)pyrazin-2-yl]ethyl]-5-(trifluoromethyl)benzamide]
≥ 80%: mortality at 500 ppm [1] | percent control (mortality, anti-feedant effect or growth inhibition) at 200 ppm [2] | percent control (mortality, anti-feedant effect or growth inhibition) at 200 ppm [4] | percent control (mortality or growth inhibition) at 200 ppm [5] | percent control (mortality or growth inhibition) at 200 ppm [6]

CC(NC(=O)c1cc(Br)cc(Br)c1)c1nccnc1-n1nccn1 (centres unmarked) [Compound P38, 3,5-dibromo-N-[1-[3-(triazol-2-yl)pyrazin-2-yl]ethyl]benzamide]
≥ 80%: mortality at 500 ppm [1] | percent control (mortality, anti-feedant effect or growth inhibition) at 200 ppm [2] | percent control (mortality, anti-feedant effect or growth inhibition) at 200 ppm [4] | percent control (mortality or growth inhibition) at 200 ppm [5] | percent control (mortality or growth inhibition) at 200 ppm [6]

CC(NC(=O)c1cc(C(F)(F)F)cc(C(F)(F)F)c1)c1nccnc1-n1nc2ccccc2n1 (centres unmarked) [Compound P52, N-[1-[3-(benzotriazol-2-yl)pyrazin-2-yl]ethyl]-3,5-bis(trifluoromethyl)benzamide]
≥ 80%: mortality at 500 ppm [1] | percent control (mortality, anti-feedant effect or growth inhibition) at 200 ppm [2] | percent control (mortality, anti-feedant effect or growth inhibition) at 200 ppm [4] | percent control (mortality or growth inhibition) at 200 ppm [5] | percent control (mortality or growth inhibition) at 200 ppm [6]
